Source: publication PMC11062922 (Nature Chemical Biology, 2023)

What was measured:
PAK4 = biological target: T1, PAK4 (Homo sapiens, UniProt O96013); experiment: Kinobeads full dose-response competition binding: PAK4; settings: Gene Name PAK4; for Relative Intensity 0.3nM: 0.3nM compound; for Relative Intensity 0.3nM / Relative Intensity 1nM / Relative Intensity 3nM / Relative Intensity 10nM / Relative Intensity 30nM / Relative Intensity 100nM / Relative Intensity 300nM / Relative Intensity 1000nM: DMSO = 1; for Relative Intensity 1nM: 1nM compound; for Relative Intensity 3nM: 3nM compound; for Relative Intensity 10nM: 10nM compound; for Relative Intensity 30nM: 30nM compound; for Relative Intensity 100nM: 100nM compound; for Relative Intensity 300nM: 300nM compound; for Relative Intensity 1000nM: 1000nM compound
T1 construct: a mixture of lysates from five cancer cell lines; endogenous in cells
T1 sequence (O96013 whole entry): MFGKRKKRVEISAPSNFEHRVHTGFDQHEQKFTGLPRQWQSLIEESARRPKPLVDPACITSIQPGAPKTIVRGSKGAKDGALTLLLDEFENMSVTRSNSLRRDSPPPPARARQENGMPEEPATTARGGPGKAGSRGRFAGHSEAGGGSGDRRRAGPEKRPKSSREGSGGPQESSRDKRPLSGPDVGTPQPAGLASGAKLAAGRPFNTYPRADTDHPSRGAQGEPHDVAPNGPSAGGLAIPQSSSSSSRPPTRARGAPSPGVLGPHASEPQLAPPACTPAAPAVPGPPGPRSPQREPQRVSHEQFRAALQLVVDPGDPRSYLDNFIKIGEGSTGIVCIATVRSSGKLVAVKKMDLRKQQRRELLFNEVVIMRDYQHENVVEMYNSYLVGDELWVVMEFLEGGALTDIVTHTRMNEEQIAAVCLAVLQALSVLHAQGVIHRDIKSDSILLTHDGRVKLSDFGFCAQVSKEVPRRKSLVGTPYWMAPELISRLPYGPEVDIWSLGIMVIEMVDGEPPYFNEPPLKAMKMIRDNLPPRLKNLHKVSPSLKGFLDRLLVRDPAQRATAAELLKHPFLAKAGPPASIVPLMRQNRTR

GSK3B = biological target: T2, GSK3B (Homo sapiens, UniProt P49841); experiment: Kinobeads full dose-response competition binding: GSK3B; settings: Gene Name GSK3B; for Relative Intensity 0.3nM: 0.3nM compound; for Relative Intensity 0.3nM / Relative Intensity 1nM / Relative Intensity 3nM / Relative Intensity 10nM / Relative Intensity 30nM / Relative Intensity 100nM / Relative Intensity 300nM / Relative Intensity 1000nM: DMSO = 1; for Relative Intensity 1nM: 1nM compound; for Relative Intensity 3nM: 3nM compound; for Relative Intensity 10nM: 10nM compound; for Relative Intensity 30nM: 30nM compound; for Relative Intensity 100nM: 100nM compound; for Relative Intensity 300nM: 300nM compound; for Relative Intensity 1000nM: 1000nM compound; for Kd: EC50 with Correction, read-out: apparent Kd; for Kd / EC50: doses in nM; for EC50: eight-dose curve fit
T2 construct: endogenous in cells
T2 sequence (P49841 whole entry): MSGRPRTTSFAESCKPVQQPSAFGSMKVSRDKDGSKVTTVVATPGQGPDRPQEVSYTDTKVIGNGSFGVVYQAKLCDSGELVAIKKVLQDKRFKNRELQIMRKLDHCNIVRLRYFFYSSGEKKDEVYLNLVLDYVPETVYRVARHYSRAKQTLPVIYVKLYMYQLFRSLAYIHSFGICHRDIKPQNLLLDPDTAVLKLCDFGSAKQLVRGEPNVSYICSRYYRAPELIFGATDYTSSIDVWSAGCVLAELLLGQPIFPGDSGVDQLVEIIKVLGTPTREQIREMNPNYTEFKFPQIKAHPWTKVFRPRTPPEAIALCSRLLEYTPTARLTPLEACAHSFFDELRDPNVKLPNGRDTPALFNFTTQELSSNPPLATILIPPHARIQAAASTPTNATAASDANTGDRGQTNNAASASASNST

LATS1 = biological target: T3, LATS1 (Homo sapiens, UniProt O95835); experiment: Kinobeads full dose-response competition binding: LATS1; settings: Gene Name LATS1; for Relative Intensity 0.3nM: 0.3nM compound; for Relative Intensity 0.3nM / Relative Intensity 1nM / Relative Intensity 3nM / Relative Intensity 10nM / Relative Intensity 30nM / Relative Intensity 100nM / Relative Intensity 300nM / Relative Intensity 1000nM: DMSO = 1; for Relative Intensity 1nM: 1nM compound; for Relative Intensity 3nM: 3nM compound; for Relative Intensity 10nM: 10nM compound; for Relative Intensity 30nM: 30nM compound; for Relative Intensity 100nM: 100nM compound; for Relative Intensity 300nM: 300nM compound; for Relative Intensity 1000nM: 1000nM compound; for Kd: EC50 with Correction, read-out: apparent Kd; for Kd / EC50: doses in nM; for EC50: eight-dose curve fit
T3 construct: endogenous in cells
T3 sequence (O95835 1-1130): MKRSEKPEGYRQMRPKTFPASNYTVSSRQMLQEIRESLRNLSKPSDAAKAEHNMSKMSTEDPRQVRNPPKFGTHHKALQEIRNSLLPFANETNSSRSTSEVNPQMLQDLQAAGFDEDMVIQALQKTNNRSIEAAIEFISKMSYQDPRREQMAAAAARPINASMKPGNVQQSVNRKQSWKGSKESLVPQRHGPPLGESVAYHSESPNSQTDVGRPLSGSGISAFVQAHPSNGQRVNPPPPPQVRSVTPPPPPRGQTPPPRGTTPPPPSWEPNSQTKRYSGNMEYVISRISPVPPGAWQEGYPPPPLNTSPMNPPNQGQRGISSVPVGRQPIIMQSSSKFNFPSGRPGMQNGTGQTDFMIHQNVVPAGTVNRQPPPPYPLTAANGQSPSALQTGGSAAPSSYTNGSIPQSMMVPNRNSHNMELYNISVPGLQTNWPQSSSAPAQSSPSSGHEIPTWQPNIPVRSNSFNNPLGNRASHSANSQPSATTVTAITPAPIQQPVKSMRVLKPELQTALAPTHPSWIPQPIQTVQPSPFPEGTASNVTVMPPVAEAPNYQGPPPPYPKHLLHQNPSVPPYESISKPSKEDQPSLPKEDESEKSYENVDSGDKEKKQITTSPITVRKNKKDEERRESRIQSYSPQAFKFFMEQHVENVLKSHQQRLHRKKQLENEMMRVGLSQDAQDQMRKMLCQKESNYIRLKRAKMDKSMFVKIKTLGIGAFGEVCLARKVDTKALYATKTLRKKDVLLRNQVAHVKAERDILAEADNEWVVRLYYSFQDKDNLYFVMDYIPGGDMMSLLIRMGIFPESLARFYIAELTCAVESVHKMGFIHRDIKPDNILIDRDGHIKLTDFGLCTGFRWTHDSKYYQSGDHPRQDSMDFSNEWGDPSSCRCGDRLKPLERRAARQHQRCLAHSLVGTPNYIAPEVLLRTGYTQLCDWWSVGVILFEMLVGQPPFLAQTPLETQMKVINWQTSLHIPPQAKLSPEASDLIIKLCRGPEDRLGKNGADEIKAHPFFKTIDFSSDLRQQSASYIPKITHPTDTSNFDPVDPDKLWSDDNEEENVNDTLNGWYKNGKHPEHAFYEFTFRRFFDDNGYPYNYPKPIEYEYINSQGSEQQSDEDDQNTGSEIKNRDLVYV

PKN1 = biological target: T4, PKN1 (Homo sapiens, UniProt Q16512); experiment: Kinobeads full dose-response competition binding: PKN1; settings: Gene Name PKN1; for Relative Intensity 0.3nM: 0.3nM compound; for Relative Intensity 0.3nM / Relative Intensity 1nM / Relative Intensity 3nM / Relative Intensity 10nM / Relative Intensity 30nM / Relative Intensity 100nM / Relative Intensity 300nM / Relative Intensity 1000nM: DMSO = 1; for Relative Intensity 1nM: 1nM compound; for Relative Intensity 3nM: 3nM compound; for Relative Intensity 10nM: 10nM compound; for Relative Intensity 30nM: 30nM compound; for Relative Intensity 100nM: 100nM compound; for Relative Intensity 300nM: 300nM compound; for Relative Intensity 1000nM: 1000nM compound
T4 construct: a mixture of lysates from five cancer cell lines; endogenous in cells
T4 sequence (Q16512 whole entry): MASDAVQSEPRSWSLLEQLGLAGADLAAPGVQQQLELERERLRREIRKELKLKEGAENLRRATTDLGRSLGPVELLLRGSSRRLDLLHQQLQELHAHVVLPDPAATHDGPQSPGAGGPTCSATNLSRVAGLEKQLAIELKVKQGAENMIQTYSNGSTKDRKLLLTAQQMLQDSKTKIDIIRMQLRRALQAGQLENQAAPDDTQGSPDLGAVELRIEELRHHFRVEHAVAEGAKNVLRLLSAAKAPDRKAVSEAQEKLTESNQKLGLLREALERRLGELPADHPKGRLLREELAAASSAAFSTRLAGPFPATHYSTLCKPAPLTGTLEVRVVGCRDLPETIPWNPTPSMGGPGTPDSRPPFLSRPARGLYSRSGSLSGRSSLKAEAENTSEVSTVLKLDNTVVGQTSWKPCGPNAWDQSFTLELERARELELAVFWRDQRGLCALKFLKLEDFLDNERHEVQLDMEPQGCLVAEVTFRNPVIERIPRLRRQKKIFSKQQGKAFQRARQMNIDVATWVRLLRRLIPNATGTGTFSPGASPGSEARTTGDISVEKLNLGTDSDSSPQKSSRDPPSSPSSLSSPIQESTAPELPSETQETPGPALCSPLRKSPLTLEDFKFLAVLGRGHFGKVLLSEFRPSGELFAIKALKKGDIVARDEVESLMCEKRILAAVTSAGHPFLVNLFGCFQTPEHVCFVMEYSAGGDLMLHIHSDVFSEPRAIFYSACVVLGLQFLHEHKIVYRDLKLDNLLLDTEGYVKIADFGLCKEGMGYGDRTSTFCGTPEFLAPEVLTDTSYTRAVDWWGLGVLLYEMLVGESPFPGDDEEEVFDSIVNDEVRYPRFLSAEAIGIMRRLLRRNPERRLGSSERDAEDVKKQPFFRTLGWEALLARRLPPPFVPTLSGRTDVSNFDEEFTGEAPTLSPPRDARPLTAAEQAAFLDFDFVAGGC

PRKX = biological target: T5, PRKX (Homo sapiens, UniProt P51817); experiment: Kinobeads full dose-response competition binding: PRKX; settings: Gene Name PRKX; for Relative Intensity 0.3nM: 0.3nM compound; for Relative Intensity 0.3nM / Relative Intensity 1nM / Relative Intensity 3nM / Relative Intensity 10nM / Relative Intensity 30nM / Relative Intensity 100nM / Relative Intensity 300nM / Relative Intensity 1000nM: DMSO = 1; for Relative Intensity 1nM: 1nM compound; for Relative Intensity 3nM: 3nM compound; for Relative Intensity 10nM: 10nM compound; for Relative Intensity 30nM: 30nM compound; for Relative Intensity 100nM: 100nM compound; for Relative Intensity 300nM: 300nM compound; for Relative Intensity 1000nM: 1000nM compound; for Kd: EC50 with Correction, read-out: apparent Kd; for Kd / EC50: doses in nM; for EC50: eight-dose curve fit
T5 construct: endogenous in cells
T5 sequence (P51817 1-358): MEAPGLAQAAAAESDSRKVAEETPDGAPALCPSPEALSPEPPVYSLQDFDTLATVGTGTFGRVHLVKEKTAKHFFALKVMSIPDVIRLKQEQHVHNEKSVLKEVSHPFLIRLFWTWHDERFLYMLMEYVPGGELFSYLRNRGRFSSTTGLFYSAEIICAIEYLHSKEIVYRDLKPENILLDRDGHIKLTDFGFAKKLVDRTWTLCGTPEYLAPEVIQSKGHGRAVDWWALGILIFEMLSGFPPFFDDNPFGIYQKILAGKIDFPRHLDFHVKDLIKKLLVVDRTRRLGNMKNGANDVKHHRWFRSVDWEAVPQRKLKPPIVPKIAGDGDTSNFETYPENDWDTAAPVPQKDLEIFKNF

[1] = biological target: T6, endogenous kinases and other proteins enriched by Kinobeads from mixed lysates of K-562, COLO-205, MV-4-11, SK-N-BE(2) and OVCAR-8 (Homo sapiens, UniProt P06239); experiment: Kinobeads competition binding profiling, two doses (100 nM and 1 µM);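 also: inhibitor preincubated 45 min at 4 °C in cell lysate, then bead pulldown. Bound protein quantified by label-free mass spectrometry relative to DMSO vehicle control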
T6 construct: endogenous in cells
T6 sequence (P06239 whole entry): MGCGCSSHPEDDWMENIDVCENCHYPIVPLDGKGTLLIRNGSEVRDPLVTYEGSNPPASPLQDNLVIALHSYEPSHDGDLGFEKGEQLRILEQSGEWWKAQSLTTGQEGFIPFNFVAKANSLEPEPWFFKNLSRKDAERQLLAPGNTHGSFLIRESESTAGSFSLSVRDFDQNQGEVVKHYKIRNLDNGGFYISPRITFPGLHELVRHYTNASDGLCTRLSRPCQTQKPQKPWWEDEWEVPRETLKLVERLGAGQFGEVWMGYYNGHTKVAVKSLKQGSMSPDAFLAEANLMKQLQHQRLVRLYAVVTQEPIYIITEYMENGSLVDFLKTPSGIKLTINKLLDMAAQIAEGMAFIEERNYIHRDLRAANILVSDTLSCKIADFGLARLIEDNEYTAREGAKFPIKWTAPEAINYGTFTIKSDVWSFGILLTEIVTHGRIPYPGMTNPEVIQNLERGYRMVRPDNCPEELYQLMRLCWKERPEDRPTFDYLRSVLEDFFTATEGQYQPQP

[2] = biological target: T7, endogenous kinases and other proteins enriched by Kinobeads from mixed lysates of K-562, COLO-205, MV-4-11, SK-N-BE(2) and OVCAR-8 (Homo sapiens, UniProt P12931); experiment: as above
T7 construct: to maximize the representation of endogenous proteins; endogenous in cells
T7 sequence (P12931 whole entry): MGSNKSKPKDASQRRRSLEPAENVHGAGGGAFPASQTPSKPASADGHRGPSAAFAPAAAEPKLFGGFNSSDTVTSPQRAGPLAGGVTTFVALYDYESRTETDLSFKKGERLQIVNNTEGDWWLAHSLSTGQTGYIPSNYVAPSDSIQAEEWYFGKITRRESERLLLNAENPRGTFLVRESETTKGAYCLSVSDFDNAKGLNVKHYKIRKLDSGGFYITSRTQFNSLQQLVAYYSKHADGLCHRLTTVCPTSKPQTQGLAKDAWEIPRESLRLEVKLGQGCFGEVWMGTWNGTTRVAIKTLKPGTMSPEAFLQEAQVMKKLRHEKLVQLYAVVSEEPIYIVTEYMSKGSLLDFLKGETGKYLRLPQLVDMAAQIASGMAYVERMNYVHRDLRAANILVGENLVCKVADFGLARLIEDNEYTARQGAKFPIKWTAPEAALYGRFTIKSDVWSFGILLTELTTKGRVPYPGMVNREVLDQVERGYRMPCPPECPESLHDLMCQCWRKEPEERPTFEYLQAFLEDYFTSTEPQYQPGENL

[3] = biological target: T8, endogenous kinases and other proteins enriched by Kinobeads from mixed lysates of K-562, COLO-205, MV-4-11, SK-N-BE(2) and OVCAR-8 (Homo sapiens, UniProt P23458); experiment: as above
T8 construct: to maximize the representation of endogenous proteins; endogenous in cells
T8 sequence (P23458 whole entry): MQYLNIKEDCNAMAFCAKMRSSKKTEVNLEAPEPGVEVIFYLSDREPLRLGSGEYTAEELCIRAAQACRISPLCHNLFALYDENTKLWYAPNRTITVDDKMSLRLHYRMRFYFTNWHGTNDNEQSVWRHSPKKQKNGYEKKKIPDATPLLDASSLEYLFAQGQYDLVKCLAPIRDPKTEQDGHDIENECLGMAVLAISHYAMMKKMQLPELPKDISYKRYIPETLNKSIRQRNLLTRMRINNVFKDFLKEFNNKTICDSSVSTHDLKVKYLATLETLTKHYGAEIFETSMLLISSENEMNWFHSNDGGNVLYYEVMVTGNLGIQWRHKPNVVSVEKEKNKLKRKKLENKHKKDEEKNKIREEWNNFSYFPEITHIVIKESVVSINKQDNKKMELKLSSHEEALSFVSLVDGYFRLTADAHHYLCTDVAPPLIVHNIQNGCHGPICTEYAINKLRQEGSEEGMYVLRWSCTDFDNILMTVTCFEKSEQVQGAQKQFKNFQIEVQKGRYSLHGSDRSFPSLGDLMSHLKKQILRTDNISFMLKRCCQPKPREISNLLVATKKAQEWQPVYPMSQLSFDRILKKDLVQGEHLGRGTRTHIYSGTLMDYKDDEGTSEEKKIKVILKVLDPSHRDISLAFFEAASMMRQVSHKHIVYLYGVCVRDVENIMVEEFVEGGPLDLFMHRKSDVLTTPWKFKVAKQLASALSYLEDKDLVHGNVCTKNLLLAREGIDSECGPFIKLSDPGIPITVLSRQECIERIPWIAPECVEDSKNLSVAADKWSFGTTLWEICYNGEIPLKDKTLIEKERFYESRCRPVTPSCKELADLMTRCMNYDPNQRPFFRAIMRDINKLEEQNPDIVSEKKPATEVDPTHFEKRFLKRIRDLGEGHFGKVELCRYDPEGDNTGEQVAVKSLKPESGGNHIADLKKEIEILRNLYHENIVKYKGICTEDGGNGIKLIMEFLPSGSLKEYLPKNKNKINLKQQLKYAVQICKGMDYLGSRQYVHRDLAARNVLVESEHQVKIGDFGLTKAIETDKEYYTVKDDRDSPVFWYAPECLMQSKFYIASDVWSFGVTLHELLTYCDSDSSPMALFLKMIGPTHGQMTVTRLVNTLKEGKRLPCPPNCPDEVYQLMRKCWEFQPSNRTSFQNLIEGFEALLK

SYK = biological target: T9, SYK (Homo sapiens, UniProt P43405); experiment: Kinobeads two-dose competition binding: SYK
T9 construct: endogenous in cells

[4] = EC50 with Correction, doses in nM, read-out: apparent Kd
[5] = eight-dose curve fit, doses in nM

## CCn1c(-c2nonc2N)nc2c(C#CC(C)(C)O)nc(OCCNC)cc21 [GSK949675A]
PAK4
  Relative Intensity 0.3nM: 1.024
  Relative Intensity 1nM: 1.092
  Relative Intensity 3nM: 1.039
  Relative Intensity 10nM: 0.9797
  Relative Intensity 30nM: 0.9918
  Relative Intensity 100nM: 0.907
  Relative Intensity 300nM: 0.6926
  Relative Intensity 1000nM: 0.4818
PAK4; [4]
  Kd: 218 nM
PAK4; [5]
  EC50: 316 nM
GSK3B
  Relative Intensity 0.3nM: 0.987
  Relative Intensity 1nM: 0.9621
  Relative Intensity 3nM: 1.1
  Relative Intensity 10nM: 0.9042
  Relative Intensity 30nM: 0.9241
  Relative Intensity 100nM: 0.7846
  Relative Intensity 300nM: 0.5456
  Relative Intensity 1000nM: 0.3036
  Kd: 171 nM
  EC50: 322 nM
LATS1
  Relative Intensity 0.3nM: 1.0287
  Relative Intensity 1nM: 1.07
  Relative Intensity 3nM: 1.096
  Relative Intensity 10nM: 1.105
  Relative Intensity 30nM: 1.087
  Relative Intensity 100nM: 0.897
  Relative Intensity 300nM: 0.6219
  Relative Intensity 1000nM: 0.3635
  Kd: 238 nM
  EC50: 238 nM
PKN1
  Relative Intensity 0.3nM: 1.026
  Relative Intensity 1nM: 1.04
  Relative Intensity 3nM: 1.011
  Relative Intensity 10nM: 0.946
  Relative Intensity 30nM: 0.9307
  Relative Intensity 100nM: 0.9366
  Relative Intensity 300nM: 0.7358
  Relative Intensity 1000nM: 0.4262
PRKX
  Relative Intensity 0.3nM: 1.295
  Relative Intensity 1nM: 1.2278
  Relative Intensity 3nM: 1.244
  Relative Intensity 10nM: 1.16
  Relative Intensity 30nM: 1.169
  Relative Intensity 100nM: 0.9393
  Relative Intensity 300nM: 0.5982
  Relative Intensity 1000nM: 0.3002
  Kd: 221 nM
  EC50: 221 nM

## CCn1c(-c2nonc2N)nc2c(C#CC(C)(C)O)nc(OCCN)cc21 [GSK902056A]
PAK4
  Relative Intensity 0.3nM: 1.05
  Relative Intensity 1nM: 1.027
  Relative Intensity 3nM: 1.044
  Relative Intensity 10nM: 0.9586
  Relative Intensity 30nM: 0.8645
  Relative Intensity 100nM: 0.8782
  Relative Intensity 300nM: 0.7175
  Relative Intensity 1000nM: 0.4475
GSK3B
  Relative Intensity 0.3nM: 1.05
  Relative Intensity 1nM: 1.092
  Relative Intensity 3nM: 1.084
  Relative Intensity 10nM: 0.9805
  Relative Intensity 30nM: 0.9007
  Relative Intensity 100nM: 0.8389
  Relative Intensity 300nM: 0.5163
  Relative Intensity 1000nM: 0.2905
  Kd: 288 nM
  EC50: 296 nM
LATS1
  Relative Intensity 0.3nM: 0.9708
  Relative Intensity 1nM: 1.022
  Relative Intensity 3nM: 1.017
  Relative Intensity 10nM: 1.027
  Relative Intensity 30nM: 0.7859
  Relative Intensity 100nM: 0.4584
  Relative Intensity 300nM: 0.1984
  Relative Intensity 1000nM: 0.02738
  Kd: 87.4 nM
  EC50: 87.4 nM
PKN1
  Relative Intensity 0.3nM: 0.9859
  Relative Intensity 1nM: 1.011
  Relative Intensity 3nM: 0.9965
  Relative Intensity 10nM: 0.9627
  Relative Intensity 30nM: 0.7754
  Relative Intensity 100nM: 0.5397
  Relative Intensity 300nM: 0.2684
  Relative Intensity 1000nM: 0.1427
PKN1; [4]
  Kd: 92.3 nM
PKN1; [5]
  EC50: 92.3 nM
PRKX
  Relative Intensity 0.3nM: 0.9197
  Relative Intensity 1nM: 0.9321
  Relative Intensity 3nM: 1.015
  Relative Intensity 10nM: 0.9379
  Relative Intensity 30nM: 0.8892
  Relative Intensity 100nM: 0.6426
  Relative Intensity 300nM: 0.2553
  Relative Intensity 1000nM: 0.1464
  Kd: 127 nM
  EC50: 127 nM

## C[C@]12O[C@H](C[C@]1(O)CO)n1c3ccccc3c3c4c(c5c6ccccc6n2c5c31)CNC4=O [Lestaurtinib]
[1]; read-out: Lestaurtinib Drugmatrix value (apparent Kd), Gene Name LCK, target LCK, each column = one Lestaurtinib control run_replicate
  potency estimated from few doses: 0.55 µM
[2]; read-out: Lestaurtinib Drugmatrix value, Gene Name SRC
  potency estimated from few doses: 0.618 µM
[3]; read-out: Lestaurtinib Drugmatrix value (apparent Kd), Gene Name JAK1, target JAK1, each column = one Lestaurtinib control run_replicate
  potency estimated from few doses: 0.881 µM
SYK; read-out: Lestaurtinib Drugmatrix value, Gene Name SYK
  potency estimated from few doses: 0.157 µM

## COc1cc(Nc2ncc3c(C)nc(-c4cc5ccccc5[nH]4)n3n2)cc(OC)c1OC [GW869516X]
[1]; LCK
  Kinobeads Data: no target
[2]; SRC
  Kinobeads Data: no target
[3]; JAK1(JH2domain-pseudokinase)
  Kinobeads Data: no target
SYK; SYK
  Kinobeads Data: no target
